The results in this text go back to patent US7842703B2, “Substituted benzofused derivatives and their use as vanilloid receptor ligands” (Glenmark Pharmaceuticals S.A., priority 2005, dated 2010).

For orientation: inhibition means the change of the read-out against control, counted positive when it falls. As usually defined, the IC50 is the concentration that gives 50% inhibition.

In this test the target is T1, Human TRPV1 expressing CHO cells (Homo sapiens, UniProt Q8NER1).
T1 construct: expressed in transfected cells; host or cells: CHO cells under G-418 selection
Description: Screening for TRPV1 antagonist using the 45Calcium uptake assay (inhibition of capsaicin induced cellular uptake of radioactive calcium). Type of test: cell-based. Conditions: for inhibition at 1 µM: CHO; for inhibition at 1 µM / % inhibition of ^45Ca uptake at 1 μM: test compound 1 μM, capsaicin 250 nM, relative to maximum ^45Ca uptake induced by capsaicin alone; for IC50: inhibition of capsaicin (250 nM) induced ^45Ca uptake. The method, then:
The inhibition of TRPV1 receptor activation was followed as inhibition of capsaicin induced cellular uptake of radioactive calcium which represents calcium influx exclusively through the plasma membrane associated TRPV1 receptor.
Stock solution of capsaicin was made in ethanol and test compounds in 100% DMSO. Stock solutions were diluted to appropriate final concentrations in assay buffer keeping the final DMSO concentration between 0.1% and 0.55%.
^45Ca was used at a final concentration of 2.5 μCi/ml (^45Ca, ICN).
Assay buffer was composed of F-12 DMEM medium supplemented with 1.8 mM CaCl2 (final conc.) and 0.1% Bovine serum albumin. (BSA from SIGMA)
Wash buffer was tyrodes solution supplemented with 0.1% BSA and 1.8 mM calcium. Lysis buffer contained 50 mM Tris-HCl, pH7.5, 150 mM NaCl, 1% Triton X-100, 0.5% deoxycholate and 0.1% Sodium dodicyl sulphate (SDS, SIGMA)
Assay was carried out with some modifications the of procedure as described by Toth et. al. (See Toth A et. al., Life Sciences 73 p 487-498, 2003). Human TRPV1 expressing CHO cells were grown in F-12 DMEM (Dulbecco's modified Eagle's medium—GIBCO) medium with 10% FBS (fetal bovine serum Hyclone), 1% penicillin-streptomycin solution, 400 μg/ml of G-418. Cells were seeded 48 h prior to the assay in 96 well plates so as to get ˜50,000 cells per well on the day of experiment. Plates were incubated at 37° C. in the presence of 5% CO2. Cells were then washed twice with 200 μl of assay buffer and re-suspended in 144 μl of the same. Assay was carried out at 30° C. in total volume of 200 μl. Test compounds were added to the cells fifteen minutes before addition of capsaicin, Final concentration of capsaicin in the assay was 250 nM. After 5 minutes of agonist treatment, drug was washed out and wells rinsed with 300 μl of ice cold wash buffer 3×. The cells were lysed in 50 μl lysis buffer for 20 min. 40 μl of cell lysate was mixed with 150 μl of Microscint PS, left overnight for equilibration. Radioactivity in samples was measured as counts per minute (cpm) using Packard Biosciences Top Count. The drug/vehicle/capsaicin treated ^45Ca uptake values were normalized over basal ^45Ca value. Data was expressed as % inhibition of ^45Ca uptake by test compound with respect to maximum ^45Ca uptake induced by capsaicin alone. IC50 value was calculated from dose response curve by nonlinear regression analysis using GraphPadPRISM software.

Where only a bound is given, the exact number is not on record here.

T1 sequence (Q8NER1 whole entry): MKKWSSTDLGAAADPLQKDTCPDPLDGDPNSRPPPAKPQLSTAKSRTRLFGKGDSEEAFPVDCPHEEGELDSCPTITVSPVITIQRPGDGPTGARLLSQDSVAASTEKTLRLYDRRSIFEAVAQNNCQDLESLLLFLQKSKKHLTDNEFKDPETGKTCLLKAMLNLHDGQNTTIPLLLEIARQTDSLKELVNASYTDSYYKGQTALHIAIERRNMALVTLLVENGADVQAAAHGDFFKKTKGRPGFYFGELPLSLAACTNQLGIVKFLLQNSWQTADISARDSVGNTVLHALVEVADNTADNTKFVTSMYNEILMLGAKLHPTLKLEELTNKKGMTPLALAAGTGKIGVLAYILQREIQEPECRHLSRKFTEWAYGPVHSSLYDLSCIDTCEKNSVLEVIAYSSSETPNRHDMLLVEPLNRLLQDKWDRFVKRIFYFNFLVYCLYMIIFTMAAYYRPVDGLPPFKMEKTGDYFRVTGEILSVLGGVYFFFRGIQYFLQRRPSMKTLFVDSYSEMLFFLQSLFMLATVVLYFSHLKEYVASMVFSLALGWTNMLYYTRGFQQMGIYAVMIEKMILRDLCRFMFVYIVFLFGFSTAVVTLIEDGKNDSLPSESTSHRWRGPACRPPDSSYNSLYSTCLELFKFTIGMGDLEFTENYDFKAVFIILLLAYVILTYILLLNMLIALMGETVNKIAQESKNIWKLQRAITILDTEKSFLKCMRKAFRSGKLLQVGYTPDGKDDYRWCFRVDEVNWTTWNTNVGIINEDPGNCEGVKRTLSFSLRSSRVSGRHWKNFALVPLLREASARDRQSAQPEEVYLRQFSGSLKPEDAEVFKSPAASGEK

As to `O=C(Nc1nc2ccc(Cl)cc2s1)NC1CC2(CCC2)Oc2ccccc21` (racemic) [Example 11, (±) 1-(3,4-Dihydro-spiro[2H-1-benzopyran-2,1′-cyclobutane]-4-yl)-3-(6-chloro-1,3-benzothiazol-2-yl)urea], the inhibition at 1 µM is less than 50%.
`O=C(Nc1ccc(Cl)c2cnccc12)NC1CC2(CCC2)Oc2ccccc21` (racemic) [Example 6, (±) 1-(3,4-dihydro-spiro[2H-1-benzopyran-2,1′-cyclobutane]-4-yl)-3-(8-chloroisoquinolin-5-ylurea]: the inhibition at 1 µM was more than 50% and the IC50 was 339 nM.
As to `O=C(Nc1cccc2cnccc12)NC1CC2(CCC2)Oc2ccc(OC3CCCC3)cc21` (racemic) [Example 52, (±) 1-(6-Cyclopentyloxy-3,4-dihydro-spiro[2H-1-benzopyran-2,1′-cyclobutane]-4-yl)-3-(isoquinolin-5-yl)urea], the inhibition at 1 µM is less than 50%.
`S=C(Nc1cccc2ccncc12)NC1CC2(CCC2)Oc2ccccc21` (stereo not shown) [Example 83, N′-isoquinolin-8-yl-N-3,3′,4,4′-tetrahydro-2′H-spiro[chromene-2,1′-cyclobutan]-4-ylthiourea (N′-isoquinolin-8-yl-N-3,4-dihydro-2H-spiro[chromene-2,1′-cyclobutan]-4-ylthiourea)]: the “% inhibition of ^45Ca uptake at 1 μM” value is reported as less than 50%.
On to `O=C(Nc1cccc2cnccc12)NC1CC2(CCC2)Sc2ccccc21` (racemic) [Example 81, (±) 1-(3,4-dihydro-spiro[2H-1-benzothiopyran-2,1′-cyclobutan]-4-yl)-3-(isoquinolin-5-yl)urea], for which the inhibition at 1 µM was more than 50% and the IC50 came out at 5.2 nM.
For the molecule `O=C(NCc1ccco1)NC1CC2(CCC2)Oc2ccccc21` (racemic) [Example 25, (±) 1-(3,4-Dihydro-spiro[2H-1-benzopyran-2,1′-cyclobutan]-4-yl)-3-(2-furylmethyl)urea], the inhibition at 1 µM was less than 50%.
Still for that read-out and setting: with `Nc1ccc2c(c1)C(NC(=O)Nc1cccc3cnccc13)CC1(CCC1)O2` (racemic) [Example 79, (±) 1-(6-Amino-3,4-dihydro-spiro[2H-1-benzopyran-2,1′-cyclobutane]-4-yl)-3-(isoquinolin-5-yl)urea] the figure was less than 50%.
As for `O=C(Nc1cccc2cnccc12)NC1CC2(CCOCC2)Oc2ccccc21` (racemic) [Example 2, (±) 1-(2′,3,3′,4,5′,6′-Hexahydrospiro-[2H]-1-benzopyran-2,4′-pyran-4-yl)-3-(isoquinoline-5-yl)urea], the 50% inhibitory concentration (IC50) was 171 nM and the “% inhibition of ^45Ca uptake at 1 μM” value came to 96.12%.
Consider `COc1ccc2c(c1)C(NC(=O)Nc1cccc3cnccc13)CC1(CCC1)O2` (racemic) [Example 51, (±) 1-(3,4-Dihydro-6-methoxy-spiro[2H-1-benzopyran-2,1′-cyclobutane]-4-yl)-3-(isoquinolin-5-yl)urea], for which the inhibition at 1 µM is more than 50% and the half-maximal inhibitory concentration (IC50) was 585 nM.
The matching figures for `O=C(Nc1cccc2cnccc12)NC1CC2(CCC2)Oc2ccccc21` (single isomer, unassigned; (+)) [Example 4, (+) 1-(3,4-Dihydro-spiro-[2H-1-benzopyran-2,1′-cyclobutan]-4-yl)-3-(isoquinolin-5-yl)urea]: more than 50% and 7.8 nM.
Regarding `O=C(NCc1ccc(C(F)(F)F)cc1)N[C@H]1CC2(CCC2)Oc2ccccc21` [Example 38, 1-((S)-3,4-Dihydrospiro[2H-1-benzopyran-2,1′-cyclobutan]-4-yl)-3-(4-trifluoromethylbenzyl)urea], the inhibition at 1 µM amounted to 10.9%.
Turning to “(±) 1-(3,4-Dihydro-spiro[2H-1-benzopyran-2,1′-cyclobutane]-4-yl)-3-(6-fluoro-1,3-benzothiazol-2-yl)urea [Example 12]”, the “% inhibition of ^45Ca uptake at 1 μM” value is less than 50%.
Take `O=C(Nc1cccc2cnccc12)NC1CC2(CCC2)Oc2ccccc21` (single isomer, unassigned; (-)) [Example 5, (−) 1-(3,4-Dihydro-spiro-[2H-1-benzopyran-2,1′-cyclobutan]-4-yl)-3-(isoquinolin-5-yl)urea]: the IC50 is 304 nM and the “% inhibition of ^45Ca uptake at 1 μM” value is more than 50%.
Consider `Cc1nccc2c(NC(=O)NC3CC4(CCC4)Oc4ccc(F)cc43)cccc12` (racemic) [Example 75, (±) 1-(3,4-Dihydro-6-fluoro-spiro[2H-1-benzopyran-2,1′-cyclobutane]-4-yl)-3-(1-methylisoquinolin-5-yl)urea], for which the inhibition at 1 µM is more than 50% and the half-inhibitory concentration (IC50) was 23 nM.
With `O=C(Nc1nnc(-c2ccc([N+](=O)[O-])cc2)s1)NC1CC2(CCC2)Oc2ccccc21` (racemic) [Example 24, (±) 1-(3,4-Dihydro-spiro[2H-1-benzopyran-2,1′-cyclobutane]-4-yl)-3-(5-(4-nitrophenyl)-1,3,4-thiadiazol-2-yl)urea], the inhibition at 1 µM was less than 50%.
Regarding `O=C(Nc1cccc2cnccc12)NC1CC2(CCC2)Oc2c(F)cc(F)cc21` (stereo not shown) [Example 48, 1-(6,8-Difluoro-3,4-dihydro-spiro[2H-1-benzopyran-2,1′-cyclobutane]-4-yl)-3-(isoquinolin-5-yl)urea], the inhibition at 1 µM was more than 50% and the IC50 came to 16.1 nM.
In the case of `O=C(Nc1cccc2cnccc12)NC1CC2(CCC2)Oc2ccc(Cl)cc21` (single isomer, unassigned; (-)) [Example 64, (−) 1-(6-Chloro-3,4-dihydro-spiro[2H-1-benzopyran-2,1′-cyclobutane]-4-yl)-3-(isoquinolin-5-yl)urea], the inhibition at 1 µM was less than 50%.
`O=C(Nc1cccc2c[n+]([O-])ccc12)NC1CC2(CCC2)Oc2ccccc21` (racemic) [Example 9, (±) 1-(3,4-Dihydro-spiro[2H-1-benzopyran-2,1′-cyclobutane]-4-yl)-3-(2-oxoisoquinolin-5-yl)urea]: the inhibition at 1 µM is more than 50% and the half-maximal inhibitory concentration (IC50) stood at 103 nM.
The matching figures for `O=C(Nc1cccc2c[n+]([O-])ccc12)NC1CC2(CCC2)Oc2ccccc21` (single isomer, unassigned; (+)) [Example 10, (+) 1-(3,4-Dihydro-spiro[2H-1-benzopyran-2,1′-cyclobutane]-4-yl)-3-(2-oxoisoquinolin-5-yl)urea]: more than 50% and 104 nM.
In the case of `O=C(Nc1cccc2cnccc12)NC1CC2(CCC2)Oc2cc(O)ccc21` (racemic) [Example 46, (±) 1-(3,4-Dihydro-7-hydroxy-spiro[2H-1-benzopyran-2,1′-cyclobutane]-4-yl)-3-(isoquinolin-5-yl)urea], the inhibition at 1 µM was less than 50%.
In the case of `O=C(Nc1cccc2nsnc12)NC1CC2(CCC2)Oc2ccccc21` (stereo not shown) [Example 29, N-2,1,3-benzothiadiazol-4-yl-N′-3,3′,4,4′-tetrahydro-2′H-spiro[chromene-2,1′-cyclobutan]-4-ylurea (N-2,1,3-benzothiadiazol-4-yl-N′-3,4-dihydro-2H-spiro[chromene-2,1′-cyclobutan]-4-ylurea)], the “% inhibition of ^45Ca uptake at 1 μM” value is on record as less than 50%.
On to `O=C(Nc1cccc2cnccc12)NC1CC2(CCC2)Oc2cc(OC3CCCC3)ccc21` (racemic) [Example 53, (±) 1-(7-Cyclopentyloxy-3,4-dihydro-spiro[2H-1-benzopyran-2,1′-cyclobutane]-4-yl)-3-(isoquinolin-5-yl)urea], for which the inhibition at 1 µM is more than 50% and the 50% inhibitory concentration (IC50) was 15.8 nM.
`O=C(Nc1cccc2cnccc12)NC1CC2(CCC2)Oc2c(Cl)cc(Cl)cc21` (racemic) [Example 66, (±) 1-(6,8-Dichloro-3,4-dihydro-spiro[2H-1-benzopyran-2,1′-cyclobutane]-4-yl)-3-(isoquinolin-5-yl)urea]: the inhibition at 1 µM is more than 50% and the IC50 amounted to 462 nM.
Take `CN1CCC2(CC1)CC(NC(=O)Nc1cccc3cnccc13)c1ccccc1O2` (racemic) [Example 1, (±) 1-{3,4-Dihydro-1′-(methyl)spiro-[2H-1-benzopyran-2,4′-piperidine]-4-yl}-3-(isoquinoline-5-yl)urea]: the inhibition at 1 µM is 142%.
On the same count and under the same terms, with `O=C(Nc1cccc2ccncc12)NC1CC2(CCC2)Oc2ccccc21` (racemic) [Example 27, (±) 1-(3,4-Dihydrospiro[2H-1-benzopyran-2,1′-cyclobutan]-4-yl)-3-(isoquinolin-8-yl)urea] the figure was 46.9%.
